The record followed here is US5378692A, “Method of lowering lipids” (Senju Pharmaceutical Co., Ltd., priority 1992, dated 1995).

Experiment [1] deals with rat alcoholic fatty liver. Conditions: male Wistar rats; for TG (liver triglyceride): 1000 mg/5 ml/kg p.o., 38% ethyl alcohol 10 ml/kg p.o. 1 hour later, liver excised 6 hours after alcohol, mean ± S.E., n = 8-9. How it is done:
Male Wistar rats, 7 weeks old, were used in fasted state.
The experiment was performed in a control group, drug treatment groups and a normal group, each consisting of 8 to 9 animals.
The treatment groups were orally dosed with GSH and DCE-Et-GS-iPr, each dissolved in distilled water, at the dose level of 1000 mg/5 ml/kg. The control group received 5 ml/kg of distilled water p.o. The normal group was also provided.
One hour after administration of the test substance, 10 ml/kg of 38% ethyl alcohol was orally administered to the animals for induction of fatty liver. The liver was excised 6 hours after administration of ethyl alcohol and the triglyceride (TG) was determined by the acetylacetone method.

For experiment [2], the system named is rat streptozotocin diabetes. The experiment in a line: Effect on rat streptozotocin diabetes, blood lipids. The class given is in vivo. Conditions: STZ-diabetic male SD rats, 100 mg/2 ml/kg i.p. once a day, mean, n = 4-7; for Total Cholesterol Week 4: week 4, tail blood; for Total Cholesterol Week 8: week 8, tail blood; for Total Cholesterol Week 10: week 10, abdominal aorta blood. How it is done: Using male 4-week-old SD rats, streptozotocin (STZ), 70 mg/kg, was injected into the tail vein to construct a diabetes model. As test substances, DCE-GS, DCE-Et-GS and DCE-Et-GS-iPr, each dissolved in physiological saline, were respectively administered intraperitoneally in doses of 100 mg/2 ml/kg once a day. The control group received physiological saline, 2 ml/kg, i.p. The normal group was also provided.
At weeks 4 and 8 of treatment, the blood was collected from the tail and the total cholesterol was determined. Furthermore, at week 10, the blood was collected from the abdominal aorta for blood biochemical tests.

The next experiment has as its system rat hypertriglyceridemia. As to the kind of experiment: Effect on rat hypertriglyceridemia (Intralipid-induced), serum triglyceride. The experiment is classed as in vivo. As to conditions: male Wistar rats; for TG (serum triglyceride): 200 mg/2 ml/kg i.p., Intralipid 2 ml/kg i.v. 0.5 hour after dosing, blood 30 min after injection, mean ± S.E., n = 8-9; for triglyceride (TG) lowering effect (in words): 200 mg/kg i.p., versus control. The procedure: Intralipid (Otsuka Pharmaceutical Co., Ltd.) was used for induction of hypertriglyceridemia in rats.
The treatment groups were intraperitoneally dosed with glutathione (hereinafter referred to as GSH), S-(diethyl α, β-dicarboxyethyl)glutathione (hereinafter, DCE-Et-GS), S-(diethyl α, β-dicarboxyethyl)glutathione isopropyl ester (hereinafter, DCE-Et-GS-iPr) and S-(α, β-dicarbamoylethyl)glutathione (hereinafter, DCE-NH2 -GS), each dissolved in physiological saline. The dose was invariously 200 mg/2 ml/kg. The control group received 2 ml/kg of physiological saline i.p. The normal group was also provided.
Intralipid 2 ml/kg was injected into the tail vein 0.5 hour after administration of the test substance. Thirty minutes after the injection, the blood was collected and the serum triglyceride (TG) was determined.

SMILES strings stand for the structures.

Turning to `CCOC(=O)CC(SC[C@H](NC(=O)CC[C@H](N)C(=O)O)C(=O)NCC(=O)OC(C)C)C(=O)OCC` (stereo partly drawn) [DCE-Et-GS-iPr, S-(diethyl α, β-dicarboxyethyl)glutathione isopropyl ester], the “TG (liver triglyceride)” value in experiment [1] is 10.7 ± 0.3 mg/g liver. For the same molecule, the “triglyceride (TG) lowering effect (in words)” value in experiment [1] (1000 mg/kg p.o., versus control) is listed as “significant triglyceride (TG) lowering effect”. Further, in experiment [2], the “Total Cholesterol Week 4” value turned out to be 113.9 mg/dL, the “Total Cholesterol Week 8” value was found to be 110.5 mg/dL and the “Total Cholesterol Week 10” value was found to be 120 mg/dL. In experiment [2] (week 10), the “TG (blood triglycerides)” value came out at 404 mg/dL, the VLDL came out at 106 mg/dL and the β-lipoproteins is 818 mg/dL. In addition, in the experiment with rat hypertriglyceridemia, the “TG (serum triglyceride)” value stood at 66.1 ± 11 mg/dL and the “triglyceride (TG) lowering effect (in words)” value is given as “Significant triglyceride (TG) lowering effects”.
Regarding `N[C@@H](CCC(=O)N[C@@H](CSC(CC(=O)O)C(=O)O)C(=O)NCC(=O)O)C(=O)O` (stereo partly drawn) [DCE-GS, S-(α, β-dicarboxyethyl)glutathione], in experiment [2], the “Total Cholesterol Week 4” value amounted to 109.8 mg/dL, the “Total Cholesterol Week 8” value amounted to 118.2 mg/dL and the “Total Cholesterol Week 10” value was 95 mg/dL. In addition, in experiment [2] (week 10), the “TG (blood triglycerides)” value stood at 406 mg/dL and the β-lipoproteins was 759 mg/dL.
With `NC(=O)CC(SC[C@H](NC(=O)CC[C@H](N)C(=O)O)C(=O)NCC(=O)O)C(N)=O` (stereo partly drawn) [DCE-NH2 -GS, S-(α, β-dicarbamoylethyl)glutathione], in the experiment on rat hypertriglyceridemia, the “TG (serum triglyceride)” value came out at 72.4 ± 6 mg/dL and the “triglyceride (TG) lowering effect (in words)” value is given as “Significant triglyceride (TG) lowering effects”.
Turning to `N[C@@H](CCC(=O)N[C@@H](CS)C(=O)NCC(=O)O)C(=O)O` [GSH, glutathione, reference compound], the “TG (liver triglyceride)” value in experiment [1] was 13.0 ± 0.4 mg/g liver. Moreover, in the experiment with rat hypertriglyceridemia, the “TG (serum triglyceride)” value was 150.4 ± 12 mg/dL.
